Laboratory results taken from US9549556B2, “Macrocyclic picolinamides as fungicides” (DOW AGROSCIENCES LLC, priority 2013, dated 2017).
Where two headings read alike, the source gives them in different places.

Legend:
[1] = test system: Puccinia triticina; assay: Wheat brown rust (PUCCRT) disease control on wheat seedlings; type: in vivo; details: read-out: PUCCRT disease control rating (% Control); for pest or weed control at 100 ppm: high volume application; for pest or weed control at 121.5 g/ha: 121.5 g/H, low volume (track spray) application
[2] = test system: Septoria tritici; assay: Leaf blotch of wheat (SEPTTR) disease control on wheat seedlings; type: in vivo, Mycosphaerella graminicola (anamorph Septoria tritici); details: Zymoseptoria tritici, read-out: SEPTTR disease control rating (% Control); for pest or weed control at 100 ppm: high volume application; for pest or weed control at 121.5 g/ha: 121.5 g/H, low volume (track spray) application
Description: Evaluation of Fungicidal Activity: Leaf Blotch of Wheat (Mycosphaerella graminicola; Anamorph: Septoria tritici; Bayer Code […]) Technical grades of materials were dissolved in acetone, which were then mixed with nine volumes of water containing 110 ppm Triton X-100. The fungicide solutions were applied onto wheat seedlings using an automated booth sprayer to run-off. All sprayed plants were allowed to air dry prior to further handling. All fungicides were evaluated using the aforementioned method for their activity vs. all target diseases. Wheat leaf blotch and brown rust activity were also evaluated using track spray applications, in which case the fungicides were formulated as EC formulations, containing 0.1% Trycol 5941 in the spray solutions. Wheat plants (variety Yuma) were grown from seed in a greenhouse in 50% mineral soil/50% soil-less Metro mix until the first leaf was fully emerged, with 7-10 seedlings per pot. These plants were inoculated with an aqueous spore suspension of Septoria tritici either prior to or after fungicide treatments. After inoculation the plants were kept in 100% relative humidity (one day in a dark dew chamber followed by two to three days in a lighted dew chamber at 20° C.) to permit spores to germinate and infect the leaf. The plants were then transferred to a greenhouse set at 20° C. for disease to develop. When disease symptoms were fully expressed on the 1st leaves of untreated plants, infection levels were assessed on a scale of 0 to 100 percent disease severity. Percent disease control was calculated using the ratio of disease severity on treated plants relative to untreated plants.

Row | SMILES | pest or weed control at 100 ppm ([1]; 24 h, 1DP (1 Day Protectant)) | pest or weed control at 100 ppm ([1]; 72 h, 3DC (3 Day Curative)) | pest or weed control at 100 ppm ([2]; 24 h, 1DP (1 Day Protectant)) | pest or weed control at 100 ppm ([2]; 72 h, 3DC (3 Day Curative)) | pest or weed control at 121.5 g/ha ([1]; 24 h, 1DP (1 Day Protectant)) | pest or weed control at 121.5 g/ha ([1]; 72 h, 3DC (3 Day Curative)) | pest or weed control at 121.5 g/ha ([2]; 24 h, 1DP (1 Day Protectant)) | pest or weed control at 121.5 g/ha ([2]; 72 h, 3DC (3 Day Curative))
1 | CCCC[C@H]1[C@H](C)OC(=O)[C@@H](NC(=O)c2nccc(OC)c2O)COC[C@@H]1OCC1CC1 [Compound 3] | > 70% | > 70% | > 70% | < 70% | – | – | – | –
2 | CCCO[C@H]1COC[C@H](NC(=O)c2nccc(OC)c2OCOC(=O)COCC)C(=O)O[C@@H](C)[C@@H]1Cc1ccc(F)cc1 [Compound 8] | – | – | – | – | > 70% | > 70% | > 70% | > 70%
3 | COc1ccnc(C(=O)N[C@H]2COC[C@H](Oc3ccc(C)cc3)[C@@H](Cc3ccc(F)cc3)[C@H](C)OC2=O)c1OC(C)=O [Compound 10] | – | – | – | – | > 70% | < 70% | > 70% | > 70%
4 | COc1ccnc(C(=O)N[C@H]2COC[C@H](OCc3ccccc3)[C@@H](CCC(C)C)[C@H](C)OC2=O)c1OCOC(C)=O [Compound 14] | – | – | – | – | > 70% | > 70% | > 70% | > 70%
5 | CCCO[C@H]1COC[C@H](NC(=O)c2nccc(OC)c2O)C(=O)O[C@@H](C)[C@@H]1Cc1ccc(F)cc1 [Compound 17] | > 70% | > 70% | > 70% | > 70% | – | – | – | –
6 | CCCO[C@H]1COC[C@H](NC(=O)c2nccc(OC)c2OCOC(C)=O)C(=O)O[C@@H](C)[C@@H]1CCC(C)C [Compound 18, ((2-(((3S,7R,8S,9S)-8-isopentyl-9-methyl-2-oxo-7-propoxy-1,5-dioxonan-3-yl)carbamoyl)-4-methoxypyridin-3-yl)oxy)methyl acetate] | – | – | – | – | > 70% | > 70% | < 70% | > 70%
7 | CCCO[C@H]1COC[C@H](NC(=O)c2nccc(OC)c2OC(C)=O)C(=O)O[C@@H](C)[C@@H]1Cc1ccc(F)cc1 [Compound 20] | – | – | – | – | > 70% | > 70% | > 70% | > 70%
8 | COc1ccnc(C(=O)N[C@H]2COC[C@H](Oc3ccc(C)cc3)[C@@H](Cc3ccc(F)cc3)[C@H](C)OC2=O)c1O [Compound 23] | > 70% | < 70% | > 70% | < 70% | – | – | – | –
9 | COc1ccnc(C(=O)N[C@H]2COC[C@H](OCC3CC3)[C@@H](Cc3ccc(F)cc3)[C@H](C)OC2=O)c1O [Compound 24] | > 70% | > 70% | > 70% | > 70% | – | – | – | –
10 | COc1ccnc(C(=O)N[C@H]2COC[C@H](OC(=O)C3CC3)[C@@H](Cc3ccc(F)cc3)[C@H](C)OC2=O)c1O [Compound 25] | > 70% | > 70% | > 70% | > 70% | – | – | – | –
11 | CCOCC(=O)OCOc1c(OC)ccnc1C(=O)N[C@H]1COC[C@H](OCOCc2ccccc2)[C@@H](Cc2ccccc2)[C@H](C)OC1=O [Compound 26] | > 70% | > 70% | > 70% | > 70% | – | – | – | –
12 | COc1ccnc(C(=O)N[C@H]2COC[C@H](OCC3CC3)[C@@H](Cc3ccc(F)cc3)[C@H](C)OC2=O)c1OC(C)=O [Compound 28] | – | – | – | – | > 70% | > 70% | > 70% | > 70%
13 | COc1ccnc(C(=O)N[C@H]2COC[C@H](OCc3ccccc3)[C@@H](Cc3ccc(F)cc3)[C@H](C)OC2=O)c1OCOC(C)=O [Compound 30] | – | – | – | – | > 70% | > 70% | > 70% | > 70%
14 | COc1ccnc(C(=O)N[C@H]2COC[C@H](OC(=O)C3CC3)[C@@H](CCC(C)C)[C@H](C)OC2=O)c1O [Compound 36] | < 70% | < 70% | < 70% | > 70% | – | – | – | –
